Results published in patent US10905706B2, “Compositions and methods to accelerate resolution of acute lung inflammation” (The Johns Hopkins University, priority 2015, dated 2021).
Like-named read-outs stand apart in the source and are kept apart here.

What was measured:
Rag-1−/− mice = assay type: in vivo, mouse
wild type (WT) mice [1] = test system: wild type (WT) mice
wild type (WT) mice [2] = assay type: in vivo, mouse
[3] = test system: splenic CD4+ CD25+ cells (Tregs); experiment: Lymphocyte culture with DAC, FACS phenotype of Tregs
[4] = test system: A/PR/8/34 H1N1 influenza virus; experiment: DAC rescue treatment in influenza model; assay type: in vivo, mouse
[5] = test system: diphtheria toxin-treated WT mice; settings: mouse, in vivo
[6] = test system: diphtheria toxin-treated Foxp3DTR mice; assay type: in vivo, mouse
Stat6−/− mice = experiment: IL-4 after i.t. LPS, Stat6−/− mice; assay type: in vivo, mouse; settings: day 5 after i.t. LPS
Description: (§1) Animals. Male C57BL/6J and BALB/cJ wild type (WT) mice (8-10 weeks old) were purchased from Jackson Laboratories (Bar Harbor, Me.). Stat6-/- mice on a BALB/c background (gift of Dr. Alan Scott) and Foxp3DTR mice on a C57BL/6 background (gift of Dr. Alexander Y. Rudensky of Memorial Sloan-Kettering) were bred. All mice were housed at the Johns Hopkins University Asthma and Allergy Bldg, and experiments conducted under a protocol approved by the Johns Hopkins Animal Care and Use Committee.
(§2) Whether the success of IL-4 therapy required M2-specific macrophage activation was also examined To test this hypothesis, the response to i.t. LPS was compared between WT mice and Stat6^−/− mice, which were deficient in a master transcriptional regulator of M2 differentiation and activation (75). […] In contrast to reduced M2 marker expression in Stat6^−/− mice, similar CD86 expression between groups (FIG. 18E) was also observed.

[7] = mouse, cited from earlier work
Foxp3DTR mice = experiment: IL-4 after i.t. LPS, Treg-depleted Foxp3DTR mice; assay type: in vivo, mouse
i.t. H2O-exposed mice = settings: mouse, in vivo
[8] = in vivo; cited from earlier work
WT mice = experiment: IL-4 after i.t. LPS, WT mice of the Stat6 comparison; assay type: in vivo, mouse
Description: as §1, §2

WT C57BL/6 mice = experiment: IL-4 treatment after i.t. LPS, C57BL/6 mice
[9] = test system: Pseudomonas aeruginosa (PAO1)
[10] = in solution; typically; cited from earlier work
[11] = day 10 post-inoculation, vs vehicle
[12] = days 5-6 after i.t. LPS, vs sham
[13] = mRNA, validated by lung immunoblots, days 4 and 6

Nc1ncn([C@H]2C[C@H](O)[C@@H](CO)O2)c(=O)n1 [DAC, 5-aza-2′-deoxycytidine]
mortality (Rag-1−/− mice; DAC days 1-4 after LPS, vehicle 50%, P=0.7): 44% | injury resolution (Rag-1−/− mice; five days post-injury): could not be rescued | lung Treg frequency (wild type (WT) mice [1]; DAC 1 mg/kg i.p. days 1-4 after i.t. water, day 5, vs vehicle): increased | lung Treg Foxp3 expression (wild type (WT) mice [1]; DAC i.p. days 1-4 after i.t. water, day 5, FACS): increased | lung histology (wild type (WT) mice [1]; after four days of DAC or vehicle): normal | BAL protein (wild type (WT) mice [1]; day 5 after i.t. water, both groups): low overall | pulmonary or overt systemic toxicity (wild type (WT) mice [1]; dose that increased lung Treg number): did not cause pulmonary or overt systemic toxicity | spleen Treg levels (wild type (WT) mice [1]; five days post-water treatment): significantly elevated | weight loss or mortality (wild type (WT) mice [1]; i.t. water, data not shown): Neither group lost weight or experienced mortality | mortality (wild type (WT) mice [2]; DAC from 24 h after i.t. LPS, vehicle 28.5%, P=0.029): none | body weight (wild type (WT) mice [2]; after initial injury, vehicle sustained weight loss): steadily regained weight | CD25 expression in lung Tregs (wild type (WT) mice [2]; data not shown): no significant change | injury parameters (BAL protein, cell count, neutrophil count, histology) (wild type (WT) mice [2]; day 5 post-LPS): resolving phenotype | CD39 expression in lung Tregs (wild type (WT) mice [2]; five days after injury): increased | CD44 expression in lung Tregs (wild type (WT) mice [2]; five days after injury): increased | CTLA-4 expression in lung Tregs (wild type (WT) mice [2]; five days after injury): modestly yet significantly increased | Ki-67 expression in lung Tregs (wild type (WT) mice [2]; five days after injury): increased | Foxp3 expression in lung Tregs (wild type (WT) mice [2]; five days post-LPS): increased | spleen Treg levels (wild type (WT) mice [2]; five days post-LPS challenge): significantly elevated | lung CD4+Foxp3− cell frequency or phenotype (wild type (WT) mice [2]; five days post-injury): did not impact | lung Treg frequency or phenotype (wild type (WT) mice [2]; two days post-injury, after one DAC dose, data not shown): no effect | CD39 expression in Tregs ([3]; 100 nM DAC vs vehicle, 48 h): did not augment | CD44 expression in Tregs ([3]; 100 nM DAC vs vehicle, 48 h): increased CD44 expression | CTLA-4 expression in Tregs ([3]; 100 nM DAC vs vehicle, 48 h): modestly increased | percentage of Tregs expressing Ki-67 ([3]; 100 nM DAC vs vehicle, 48 h): higher percentage | Foxp3 expression in Tregs ([3]; 48 h culture, anti-CD3/CD28, IL-2, DAC 10 or 100 nM): augmented Foxp3 expression | difference in Foxp3 mean fluorescence intensity between DAC-induced Foxp3+ cells and Foxp3+ Tregs cultured with DAC ([3]; in vitro culture): approximately 50 fold | weight loss ([4]; DAC days 3-7 post-inoculation, day 10, vs vehicle): smaller magnitude of weight loss | lung Treg Foxp3 expression ([4]; day 10 post-inoculation): increase | lung Treg number ([4]; day 10 post-inoculation): increase | BAL cell count [4, 11]: decreased | BAL neutrophil count [4, 11]: decreased | BAL protein [4, 11]: decreased | histologic injury [4, 11]: decreased | lung injury resolution [5]: accelerated lung injury resolution | lung injury resolution (weight, BAL protein, cell count, neutrophil count, histology) ([6]; five days post-LPS): did not accelerate lung injury resolution | mortality ([6]; mouse, in vivo): 33%

IL-4: recombinant IL-4 cytokine (PeptroTech); in the examples given i.p. as a complex with anti-IL-4 antibody
response to IL-4 (BAL protein and neutrophils) (Stat6−/− mice): blunted response | half-life in mice ([7]; in vivo): 30 min | duration of in vivo IL-4 activity [7]: about 30 minutes | BAL macrophages (Foxp3DTR mice; day 6, vs sham): significant increase | M2 macrophage surface marker expression (Foxp3DTR mice; day 6, vs sham): higher | BAL neutrophils (Foxp3DTR mice; day 6 after i.t. LPS, vs sham): significantly reduced | BAL protein (Foxp3DTR mice; day 6 after i.t. LPS, vs sham): significantly reduced | BAL total cell count (Foxp3DTR mice; day 6 after i.t. LPS, vs sham): significantly reduced | weights (Foxp3DTR mice; i.t. LPS 3 mg/kg, DT, IL-4 days 2 and 3, vs sham): significantly increased | Crs or DFCO (i.t. H2O-exposed mice): no marked differences | safety in humans [8]: safe | BAL neutrophils (WT mice; day 5): greater than two-fold reduction | BAL protein (WT mice; day 5): greater than two-fold reduction | weight (WT mice; days 4 and 5, vs all other groups): significant weight gain | weight gain (WT C57BL/6 mice; by day 6 after i.t. LPS, vs sham): improved weight gain | whole lung mRNA level of inducible nitric oxide synthase (Nos2) (WT C57BL/6 mice; day 4): reduced | CD86 level on alveolar macrophages (F4/80+) (WT C57BL/6 mice; day 6, vs sham): three-fold lower | Dectin-1 level on alveolar macrophages (F4/80+) (WT C57BL/6 mice; day 6, vs sham): four-fold higher | MMR level on alveolar macrophages (F4/80+) (WT C57BL/6 mice; day 6, vs sham): four-fold higher | Tregs recovered by BAL (WT C57BL/6 mice; day 6 after i.t. LPS, vs sham): significant three-fold increase | histopathologic evidence of lung injury (WT C57BL/6 mice; day 6 after i.t. LPS, vs sham): reduced histopathologic evidence of lung injury | diffusing capacity (DFCO) (WT C57BL/6 mice; day 6 following i.t. LPS): significantly improved | lung collagen (WT C57BL/6 mice; day 6 following i.t. LPS, vs sham): significantly reduced | BAL albumin (WT C57BL/6 mice; [12]): two-fold reduction | BAL neutrophils (WT C57BL/6 mice; [12]): five-fold reduction | BAL protein (WT C57BL/6 mice; [12]): as much as a three-fold reduction | survival (WT C57BL/6 mice; i.t. LPS 4 mg/kg day 0, IL-4 days 2-4, sham 57%): 92% | number of FIZZ1-expressing alveolar macrophages (WT C57BL/6 mice; i.t. LPS, vs sham): smaller, yet significant increase | number of FIZZ1-expressing interstitial macrophages (WT C57BL/6 mice; i.t. LPS, vs sham): significant two-fold increase | Arginase 1 (Arg1) level in whole lung (WT C57BL/6 mice; [13]): significantly increased | Fizz1 (Retn1a) level in whole lung (WT C57BL/6 mice; [13]): significantly increased | Ym1 (Chil3) level in whole lung (WT C57BL/6 mice; [13]): significantly increased | BAL albumin ([9]; day 4, vs sham): two-fold reductions | BAL neutrophils ([9]; day 4, vs sham): four-fold reduction | MFI of MMR and Dectin-1 ([9]; day 4, vs sham): significantly increased | percentage of alveolar macrophages (F4/80+) expressing MMR and Dectin-1 ([9]; day 4, vs sham): more than doubled | BAL protein ([9]; i.t. PAO1 day 0, IL-4 days 2 and 3, day 4, vs sham): two-fold reductions | lung CFU counts ([9]; mouse, in vivo): similar

diphtheria toxin [reference compound]
Tregs remaining after depletion, of all CD4+ cells (Foxp3DTR mice; spleen, lung, BAL, sham- and IL-4-treated groups): less than 0.2%

B1: recombinant human IL-4: 15.1 kDa globular protein, SEQ ID NO: 3 (protein)
chain: MHKCDITLQEIIKTLNSLTEQKTLCTELTVTDIFAASKNTTEKETFCRAATVLRQFYSHHEKDTRCLGATAQQFHRHKQLIRFLKRLDRNLWGLAGLNSCPVKEANQSTLENFLERLKTIMREKYSKCSS
ED50 for certain effects [10]: 0.006 to 0.03 ng/mL
